Source: patent publication US20240239846A1, “METHODS OF ANALYSING A SAMPLE” (THE UNIVERSITY OF ADELAIDE, priority 2021, published 2024)
Entries after “also recorded” stand apart in the source; their conditions may differ.

Key:
[1] = SPR analysis of glycan binding (all tested glycans); details: lectin immobilized on CM5 chip; glycans up to a concentration of 20 μM; FIG. 1B
Experimental: SubBA12 was analysed for binding to a range of Neu5Ac, Neu5Gc and non-sialylated synthetic oligosaccharides using SPR.
For glycan analysis, SubB2M was immobilized through flow cells 2 and 3 and SubBA12 was immobilized through flow cell 4 (capture levels: 5000-6000 Response Units (RU)) onto a series S sensor chip CM5 (GE) using the NHS capture kit. Flow cell 1 was run as a blank immobilization. Glycans purchased from Chemily Glycoscience (Atlanta, GA) were analysed across a five-fold dilution series in PBS at a maximum concentration of 20 μM. Analysis was run using single cycle analysis and double reference subtraction on the Biacore S200 evaluation software.

[2] = Neu5Ac/Neu5Gc glycan microarray analysis; assay type: binding; details: ZBiotech Neu5Gc/Neu5Ac N-Glycan Array, FIG. 1A
Excerpt: A Neu5Ac/Neu5Gc glycan microarray (as previously used in Wang et al, 2018, Biophys Biochem Res Commun 500:765-771; ZBiotech Neu5Gc/Neu5Ac N-Glycan Array) was utilised to determine the binding of SubBA12 to sialylated glycans with SubB2M used as a control. This glycan array comprises over 40 match pairs of glycans covalently linked to the array slide surface. Each pair of glycans is identical apart from the presence of either a Neu5Ac or Neu5Gc moiety.
Neu5Ac/Neu5Gc glycan array slides were purchased from Z-Biotech (Aurora, Colorado, USA, https://www.zbiotech.com/neu5gc-neu5ac-n-glycan-array.html). A 16-subarray slide array was used and glycan array analysis of SubB2M and SubBA12 was performed as per the manufacturer's protocols. Arrays were scanned using a Innocan 1100AL laser scanner and analysed using Mapix array analysis software.

[3] = Ser12>Ala12 mutation; described previously (Byres et al, 2008); cited from earlier work

With “SubBA12: mutant form of SubB (Ser12>Ala12) having the amino acid sequence of SEQ ID NO: 4; lacks or has substantially reduced sialic acid binding” the “binding (concentration dependent interaction) to any of the tested glycans by SPR” value [1] was “No binding; also recorded: No concentration dependent interactions”, the “binding to Neu5Ac-containing glycans on glycan array” value [2] was “Essentially no binding; also recorded: little to no recognition” and the “binding to Neu5Gc-containing glycans on glycan array” value [2] was “Essentially no binding; also recorded: little to no recognition”. The “binding to sialylated glycans” value [3] was “cannot bind”.
